pIC50: −log10 of the molar value.
Target: human recombinant TPK1 (Homo sapiens, UniProt P49841)
Experiment: Inhibitory activity against P-GS1 phosphorylation by TPK1 (Kinase Glo luminescence)
Format: biochemical
Conditions: 7.5 μM P-GS1, 10 μM ATP, 25° C. for 16 hours, Kinase Glo Reagent luminescent signal
How it was run: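 Human recombinant TPK1 phosphorylated 7.5 μM P-GS1 with 10 μM ATP in 100 mM HEPES-NaOH pH 7.2 with Mg, EGTA, DTT, Tween 20 and 1% DMSO final, for 16 h at 25° C. Remaining ATP was read by Kinase Glo luminescence. IC50 was normalised to no-enzyme (0%) and no-compound (100%) controls.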

human recombinant TPK1, sequence (P49841 whole entry): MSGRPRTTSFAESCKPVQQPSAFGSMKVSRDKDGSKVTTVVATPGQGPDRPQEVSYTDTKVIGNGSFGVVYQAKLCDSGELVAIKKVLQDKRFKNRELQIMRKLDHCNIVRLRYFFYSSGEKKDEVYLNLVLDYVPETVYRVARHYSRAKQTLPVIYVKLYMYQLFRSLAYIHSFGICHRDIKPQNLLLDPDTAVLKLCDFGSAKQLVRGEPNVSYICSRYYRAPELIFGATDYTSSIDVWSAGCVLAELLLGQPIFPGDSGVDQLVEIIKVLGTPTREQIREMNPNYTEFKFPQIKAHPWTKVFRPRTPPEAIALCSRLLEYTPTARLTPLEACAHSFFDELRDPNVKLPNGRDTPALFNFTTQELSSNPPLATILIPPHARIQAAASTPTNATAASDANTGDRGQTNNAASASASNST

| SMILES | pIC50 |
| --- | --- |
| Cc1nc(-c2ccc([C@@H]3COCCN(c4nc(-c5ccncn5)cc(=O)n4C)C3)cc2)no1 [Compound A085, (S)-2-[6-[4-(5-methyl-1,2,4-oxadiazol-3-yl)-phenyl]-1,4-oxazepan-4-yl]-3-methyl-6-(pyrimidin-4-yl)pyrimidin-4(3H)-one] | 7.78 |
| Cc1nc(-c2ccc(C3COCCN(c4nc(-c5ccncn5)cc(=O)n4C)C3)cc2)no1 (centres unmarked) [Compound A086, 2-[6-[4-(5-methyl-1,2,4-oxadiazol-3-yl)-phenyl]-1,4-oxazepan-4-yl]-3-methyl-6-(pyrimidin-4-yl)pyrimidin-4(3H)-one] | 7.45 |
| CC1COCCN(c2nc(-c3ccncn3)cc(=O)n2C)C1 (centres unmarked) [Compound A087, 2-(6-methyl-1,4-oxazepan-4-yl)-3-methyl-6-(pyrimidin-4-yl)pyrimidin-4(3H)-one] | 7.10 |
| CC1COCCN(c2nc(-c3ccncc3)cc(=O)n2C)C1 (centres unmarked) [Compound A088, 2-(6-methyl-1,4-oxazepan-4-yl)-3-methyl-6-(pyridin-4-yl)pyrimidin-4(3H)-one] | 6.75 |
| Cn1c(N2CCOC(c3ccccc3F)CC2)nc(-c2ccncn2)cc1=O (centres unmarked) [Compound A105, 2-[7-(2-fluorophenyl)-1,4-oxazepan-4-yl]-3-methyl-6-(pyrimidin-4-yl)pyrimidin-4(3H)-one] | 7.73 |
| Cn1c(N2CCOC(c3cccc(F)c3)CC2)nc(-c2ccncn2)cc1=O (centres unmarked) [Compound A106, 2-[7-(3-fluorophenyl)-1,4-oxazepan-4-yl]-3-methyl-6-(pyrimidin-4-yl)pyrimidin-4(3H)-one] | 7.69 |
| Cn1c(N2CCOC(c3ccc(F)cc3)CC2)nc(-c2ccncc2F)cc1=O (centres unmarked) [Compound A108, 2-[7-(4-fluorophenyl)-1,4-oxazepan-4-yl]-6-(3-fluoropyridin-4-yl)-3-methylpyrimidin-4(3H)-one] | 7.61 |
| COc1cccc(C2CCN(c3nc(-c4ccncc4)cc(=O)n3C)CCO2)c1 (centres unmarked) [Compound A109, 2-[7-(3-methoxyphenyl)-1,4-oxazepan-4-yl]-3-methyl-6-(pyridin-4-yl)pyrimidin-4(3H)-one] | 7.55 |
| Cn1c(N2CCOC(c3ccccc3F)CC2)nc(-c2ccncc2)cc1=O (centres unmarked) [Compound A110, 2-(7-(2-fluorophenyl)-1,4-oxazepan-4-yl)-3-methyl-6-(pyridin-4-yl)pyrimidin-4(3H)-one] | 7.53 |
| COc1ccccc1C1CCN(c2nc(-c3ccncc3)cc(=O)n2C)CCO1 (centres unmarked) [Compound A115, 2-(7-(2-methoxyphenyl)-1,4-oxazepan-4-yl)-3-methyl-6-(pyridin-4-yl)pyrimidin-4(3H)-one] | 7.32 |
| COc1ccc(C2CCN(c3nc(-c4ccncn4)cc(=O)n3C)CCO2)cc1 (centres unmarked) [Compound A117, 2-(7-(4-methoxyphenyl)-1,4-oxazepan-4-yl)-3-methyl-6-(pyrimidin-4-yl)pyrimidin-4(3H)-one] | 7.26 |
| COc1ccc(C2CCN(c3nc(-c4ccncc4)cc(=O)n3C)CCO2)cc1 (centres unmarked) [Compound A118, 2-(7-(4-methoxyphenyl)-1,4-oxazepan-4-yl)-3-methyl-6-(pyridin-4-yl)pyrimidin-4(3H)-one] | 7.23 |
| Cn1c(N2CCOC(c3ccc(F)cc3)CC2)nc(-c2ccncc2)cc1=O (centres unmarked) [Compound A123, 2-[7-(4-fluorophenyl)-1,4-oxazepan-4-yl]-3-methyl-6-(pyridin-4-yl)pyrimidin-4(3H)-one] | 6.82 |

Further lines, results first:

| pIC50 | SMILES |
| --- | --- |
| 8.14 | Cn1c(N2CCCO[C@@H](c3cccc(Br)c3)C2)nc(-c2ccncn2)cc1=O [Compound A079, (S)-2-[2-(3-bromophenyl)-1,4-oxazepan-4-yl]-3-methyl-6-(pyrimidin-4-yl)pyrimidin-4(3H)-one] |
| 7.97 | Cn1c(N2CCOCC(c3ccc(-c4ncno4)cc3)C2)nc(-c2ccncn2)cc1=O (centres unmarked) [Compound A080, 2-[6-[4-(1,2,4-oxadiazol-5-yl)-phenyl]-1,4-oxazepan-4-yl]-3-methyl-6-(pyrimidin-4-yl)pyrimidin-4(3H)-one] |
| 7.89 | Cc1noc(-c2ccc(C3COCCN(c4nc(-c5ccncn5)cc(=O)n4C)C3)cc2)n1 (centres unmarked) [Compound A081, 2-[6-[4-(3-methyl-1,2,4-oxadiazol-5-yl)-phenyl]-1,4-oxazepan-4-yl]-3-methyl-6-(pyrimidin-4-yl)pyrimidin-4(3H)-one] |
| 7.88 | Cn1c(N2CCOCC(c3ccc(-c4ncon4)cc3)C2)nc(-c2ccncn2)cc1=O (centres unmarked) [Compound A082, 2-[6-[4-(1,2,4-oxadiazol-3-yl)-phenyl]-1,4-oxazepan-4-yl]-3-methyl-6-(pyrimidin-4-yl)-pyrimidin-4(3H)-one] |
| 7.85 | Cc1nc(-c2ccc(C3COCCN(c4nc(-c5ccncc5F)cc(=O)n4C)C3)cc2)no1 (centres unmarked) [Compound A083, 2-[6-[4-(5-methyl-1,2,4-oxadiazol-3-yl)-phenyl]-1,4-oxazepan-4-yl]-6-(3 fluoropyridin-4-yl)-3-methylpyrimidin-4(3H)-one] |
| 7.82 | CC1COCCN(c2nc(-c3ccncc3F)cc(=O)n2C)C1 (centres unmarked) [Compound A084, 2-(6-methyl-1,4-oxazepan-4-yl)-6-(3-fluoropyridin-4-yl)-3-methylpyrimidin-4(3H)-one] |
| 8.08 | Cn1c(N2CCCO[C@@H](c3ccc(F)cc3)C2)nc(-c2ccncn2)cc1=O [Compound A092, (S)-2-[2-(4-fluorophenyl)-1,4-oxazepan-4-yl]-3-methyl-6-(pyrimidin-4-yl)pyrimidin-4(3H)-one] |
| 8.02 | COc1cccc(C2CCN(c3nc(-c4ccncc4F)cc(=O)n3C)CCO2)c1 (centres unmarked) [Compound A093, 2-[7-(3-methoxyphenyl)-1,4-oxazepan-4-yl]-6-(3-fluoropyridin-4-yl)-3-methylpyrimidin-4(3H)-one] |
| 7.99 | COc1ccccc1C1CCN(c2nc(-c3ccncc3F)cc(=O)n2C)CCO1 (centres unmarked) [Compound A094, 2-[7-(2-methoxyphenyl)-1,4-oxazepan-4-yl]-6-(3-fluoropyridin-4-yl)-3-methylpyrimidin-4(3H)-one] |
| 7.97 | COc1ccc(C2CCN(c3nc(-c4ccncc4F)cc(=O)n3C)CCO2)cc1 (centres unmarked) [Compound A095, 2-[7-(4-methoxyphenyl)-1,4-oxazepan-4-yl]-6-(3-fluoropyridin-4-yl)-3-methylpyrimidin-4(3H)-one] |
| 7.86 | Cn1c(N2CCOC(c3ccc(F)cc3)CC2)nc(-c2ccncn2)cc1=O (centres unmarked) [Compound A098, 2-[7-(4-fluorophenyl)-1,4-oxazepan-4-yl]-3-methyl-6-(pyrimidin-4-yl)pyrimidin-4(3H)-one] |
| 7.82 | COc1cccc(C2CCN(c3nc(-c4ccncn4)cc(=O)n3C)CCO2)c1 (centres unmarked) [Compound A101, 2-[7-(3-methoxyphenyl)-1,4-oxazepan-4-yl]-3-methyl-6-(pyrimidin-4-yl)pyrimidin-4(3H)-one] |
| 7.79 | COc1ccccc1C1CCN(c2nc(-c3ccncn3)cc(=O)n2C)CCO1 (centres unmarked) [Compound A102, 2-[7-(2-methoxyphenyl)-1,4-oxazepan-4-yl]-3-methyl-6-(pyrimidin-4-yl)pyrimidin-4(3H)-one] |

Source: patent US9108957B2 (MITSUBISHI TANABE PHARMA CORPORATION, priority 2009, dated 2015)
